From patent US20070099887A1, “Photodynamic therapy for the treatment of prostatic conditions” (priority 2003, published 2007)

Tested on: prostate
Test: Photodynamic therapy of the canine prostate after intraprostatic injection of QLT0074 and transurethral 690 nm light
Assay type: in vivo, dogs
Description: Eight mature, intact, mixed-breed dogs were premedicated with butorphanol (0.4 mg per kilogram of body weight), acepromazine (0.1 mg/kg), and atropine (0.4 mg/kg), all given by intramuscular injection. Anesthesia was induced with intravenous thiopental sodium (8 mg per 0.4536 kilograms of body weight) and maintained with inhaled isoflurane and oxygen (dosage as required for anesthetic effect). QLT0074 for injection (A-EA6 in U.S. Pat. No. 5,929,105) was reconstituted with Water for Injection to give a stock concentration of 2.0 mg/ml and then diluted with 5% Dextrose in water to a concentration 0.2 mg/ml. Injections of the drug were then delivered to the prostate using a commercially available transurethral injection device (InjecTx™, San Jose, Calif., USA). Two injections of 0.5 ml were given to each left lobe of the prostate and 2 injections of 1.0 ml were given to each right lobe of the prostate. The activation-energy delivery device used comprised: • a cylindrical fibre optic with a 200 μm diameter core, a 25 mm long diffuser, and a power rating of 175 mW/cm (maximum power load, 437.5 mW), • a reflective-cap fibre-centering balloon catheter with a 20 mm treatment window supplied with a guidewire for positioning the device in the urethra, and • a 3 W 690 nm red-light diode laser (AOC, South Plainfield, N.J., USA). The treatment assembly was positioned in the urethra using ultrasonic guidance. Ultrasound was also used to position the needles for four […] intraprostatic injections (two per lobe separated by longitudinally by 1 cm). Each injection was at a depth of between 8 and 12 mm into the prostate. The activation energy was delivered 15 minutes after the last injection. A dose of either 25 J/cm^2, 50 J/cm^2, or 100 J/cm^2 was delivered. […] After seven days the dogs were euthanased and the prostates were harvested.

[1] = prostates harvested after seven days, QLT0074 0.2 mg/ml intraprostatic, injection depth 8-12 mm, 25, 50 or 100 J/cm^2

Bowel, bladder, and prostate sizes (dogs euthanased after seven days, QLT0074 0.2 mg/ml intraprostatic, 25, 50 or 100 J/cm^2): within normal ranges
Clinical appearance of the dogs during observation (mature intact mixed-breed dogs, QLT0074 0.2 mg/ml, 2 x 0.5 ml left lobe and 2 x 1.0 ml right lobe, 690 nm light 25, 50 or 100 J/cm^2 15 minutes after last injection, observed for one week): clinically normal
SMILES: C=Cc1c(C)c2cc3nc(cc4[nH]c(cc5nc(cc1[nH]2)C(C)=C5CCC(=O)OCCO)c(CCC(=O)OCCO)c4C)[C@@]1(C)C3=CC=C(C(=O)OC)[C@H]1C(=O)OC [QLT0074, Lemuteporfin]
PDT-associated damage in the urethra [1]: no significant PDT-associated damage
PDT-associated tissue damage in the target tissue (prostates) [1]: evidence of PDT-associated tissue damage in the target tissue
